Tests used:
MAGE-D4 promoter [1] = experiment: Pyrosequencing of MAGE-D4 promoter in U251; format: cell-based, human; settings: U251, compared with control group
Procedure: The human glioma cell lines (U87-MG and U251) were obtained from the Cell Bank of Type Culture Collection of the Chinese Academy of Science (Shanghai, China). […] A3656), valproic acid (VPA, CAS No. 99-66-1), and trichostatin A (TSA, CAS No. 58880-19-6) were purchased from Sigma-Aldrich Corporation (St. Louis, MO, USA). DAC and TSA were dissolved in DMSO to a concentration of 10 mM. Aliquots were stored at -80°C and diluted with media before being used. Drug treatments were divided into seven groups: (1) DAC group: cells were cultured in medium on the presence of 1 μM DAC for 120 h; (2) VPA group: cells were grown in medium containing 1 mM VPA for 120 h; (3) TSA group: cells were cultured in medium supplemented with 1 μM TSA for 24 h; (4) D + V group: cells were cultured with 1 μM DAC and 1 mM VPA for 120 h; (5) D + T group: cells were cultured with 1 μM DAC for 120 h, followed by 1 μM TSA for 24 h; (6) Control group: cells were cultured with 0.09% DMSO, which is the highest concentration of DMSO used in this study in consideration of the potential toxicity of DMSO to living cells. Human recombinant interleukin (IL) IL-2, IL-4, and human recombinant granulocyte/macrophage colony-stimulating factor (GM-CSF) were purchased from R&D Systems. Genomic DNA was isolated from cells using a DNA Isolation Kit (Vazyme, China). The methylation status of the MAGE-D4 promoter in cells was quantified by the PyroMark Q96 ID pyrosequencing platform (Qiagen), which was performed by Shanghai […] Biotech Co., Ltd. The methylation status of each site was analyzed automatically by the accompanying software Pyro Q-CpG (Qiagen). Two regions in the core promoter were detected, which contained 18 CpG sites. Primers used in pyrosequencing were as follows: region 1: [NT] (forward) and [NT] (reverse); region 2: [NT] (forward) and [NT] (reverse). Sequences of the MAGE-D4 promoter and pyrosequencing regions containing CpG sites are listed in Supplemental Materials.

HLA-A2 [2] = experiment: HLA-A2 expression in U251; format: cell-based, human; settings: DAC 1 μM 120 h, TSA 1 μM 24 h
Procedure: The human glioma cell lines (U87-MG and U251) were obtained from the Cell Bank of Type Culture Collection of the Chinese Academy of Science (Shanghai, China). […] A3656), valproic acid (VPA, CAS No. 99-66-1), and trichostatin A (TSA, CAS No. 58880-19-6) were purchased from Sigma-Aldrich Corporation (St. Louis, MO, USA). DAC and TSA were dissolved in DMSO to a concentration of 10 mM. Aliquots were stored at -80°C and diluted with media before being used. Drug treatments were divided into seven groups: (1) DAC group: cells were cultured in medium on the presence of 1 μM DAC for 120 h; (2) VPA group: cells were grown in medium containing 1 mM VPA for 120 h; (3) TSA group: cells were cultured in medium supplemented with 1 μM TSA for 24 h; (4) D + V group: cells were cultured with 1 μM DAC and 1 mM VPA for 120 h; (5) D + T group: cells were cultured with 1 μM DAC for 120 h, followed by 1 μM TSA for 24 h; (6) Control group: cells were cultured with 0.09% DMSO, which is the highest concentration of DMSO used in this study in consideration of the potential toxicity of DMSO to living cells. […] The cells were then harvested, washed with PBS buffer three times, and analyzed by a FACScan flow cytometer (BD Biosciences, Franklin Lakes, NJ, USA) using BD AccuriTM C6 Software (BD Biosciences).

MAGE-D4 promoter [3] = experiment: Pyrosequencing of MAGE-D4 promoter in U87; format: cell-based, human; settings: U87, compared with control group
Procedure: The human glioma cell lines (U87-MG and U251) were obtained from the Cell Bank of Type Culture Collection of the Chinese Academy of Science (Shanghai, China). […] A3656), valproic acid (VPA, CAS No. 99-66-1), and trichostatin A (TSA, CAS No. 58880-19-6) were purchased from Sigma-Aldrich Corporation (St. Louis, MO, USA). DAC and TSA were dissolved in DMSO to a concentration of 10 mM. Aliquots were stored at -80°C and diluted with media before being used. […] The methylation status of the MAGE-D4 promoter in cells was quantified by the PyroMark Q96 ID pyrosequencing platform (Qiagen), which was performed by Shanghai […] Biotech Co., Ltd. The methylation status of each site was analyzed automatically by the accompanying software Pyro Q-CpG (Qiagen). Two regions in the core promoter were detected, which contained 18 CpG sites. […]

IL-2 = IL-2 ELISA of DC/T-cell co-culture supernatant; format: cell-based, human; settings: 72 h co-culture supernatant, versus negative control peptide
Procedure: Production of cytokines in the supernatants was determined using commercially available ELISA kits (Cloud-Clone Corporation, Wuhan, China) according to the protocol of the manufacturer. Approximately 50 μl of supernatant and different concentration standards were added and mixed with 100 μl of horseradish peroxidase (HRP) labeled detection antibody against a 96-well plate, respectively, except for the blank control. After incubation at 37°C for 60 min, we washed the plate five times. Add substrate A and substrate B 50 μl respectively, incubate for 15min in a 37°C incubator in dark. Then, 50 μl of stop solution was added and a 450 nm absorbance value (OD value) was measured within 15 min. The regression equation of the standard curve is calculated according to the concentration of the standard substance and the OD value, and the corresponding sample concentration is calculated on the basis of the regression equation.

autologous T cells = settings: T cells with peptide-pulsed autologous DCs 10:1, 72 h; versus DCs without peptide
Procedure: PBMCs were isolated from the peripheral blood samples of 8 HLA-A2^+ healthy donors, with University Ethics Review Committee-approved, written consent. The effector T lymphocytes and DCs were prepared by our published method ([31]). CD8^+ T cells were isolated from PBMCs using CD8^+ negative selection MicroBeads EasySep™ Human CD8^+ T Cell Isolation Kit (17953, stemcell) according to the manufacturers.
For T-cell stimulation, T cells were cultured with RPMI1640 complete medium containing IL-2 (20 ng/ml) mixed with peptide-pulsed autologous DCs at a ratio of 10:1 and co-cultured for 72 h. The supernatant of DCs and T cells co-cultured for 72h was used to detect IL-2 and γ-IFN. The capacity of peptide-pulsed DCs to stimulate the proliferation of autologous T cells was evaluated using a Cell Counting Kit-8 (CCK-8, Beiltime Biotec, China), as described using our published method ([31]). CCK-8 solution (20 μl/well) was added in 2 h before the end of culture. Then, the optical density (OD) was measured by microplate tester. The stimulation index (SI) is calculated according to the following formula: SI = (experiment well OD value − background OD value)/(blank control well OD value − background OD value).

peptide/HLA-A2 complex = peptide/HLA-A2 complex (Homo sapiens, UniProt P04439, D140Y/D185E/D98H/E176V/E277Q/G131W/G231S/I119V/I121R/I166T/I218V/L300P/L318F/N151K/N90K/P208A/P217A/Q86G/Q94H/R138H/R169H/T345S); experiment: Peptide/HLA-A2 complex stability assay on T2 cells; format: binding; settings: 50 μM peptide + β2 microglobulin 2.5 μg/ml, 18 h 37°C, brefeldin A 1 h, read at 0, 2, 4, 6 h, flow cytometry
Procedure: T2 cells were collected and placed in 24-well plates (1 × 10^6/ml), 1 ml in each well. Predictive peptides (50 μM) and β2 microglobulin (2.5 μg/ml) were added, respectively. […] After the incubation, T2 cells were washed twice with cold PBS to clear the unbound peptide, then brefeldin A (10 μg/m) was added and incubated for 1 h. Then, cells were washed and incubated at 37°C for 0, 2, 4, and 6 h; FITC-labeled mouse anti-human HLA-A2 monoclonal antibody was added and incubated at 4°C for 30 min under dark conditions. The MFI of cells was detected by flow cytometry after washing twice. The results are expressed as dissociation complex 50 (DC50), meaning the time required for the loss of 50% of the stabilized peptide/complex.

U251 = experiment: LDH cytotoxicity assay and HLA block, U251; format: cell-based, human; settings: DAC + TSA-treated U251, E:T 50:1, 4 h
Procedure: The human glioma cell lines (U87-MG and U251) were obtained from the Cell Bank of Type Culture Collection of the Chinese Academy of Science (Shanghai, China). Decitabine (DAC, CAS No. A3656), valproic acid (VPA, CAS No. 99-66-1), and trichostatin A (TSA, CAS No. 58880-19-6) were purchased from Sigma-Aldrich Corporation (St. Louis, MO, USA). DAC and TSA were dissolved in DMSO to a concentration of 10 mM. Aliquots were stored at −80°C and diluted with media before being used. Drug treatments were divided into seven groups: (1) DAC group: cells were cultured in medium on the presence of 1 μM DAC for 120 h; (2) VPA group: cells were grown in medium containing 1 mM VPA for 120 h; (3) TSA group: cells were cultured in medium supplemented with 1 μM TSA for 24 h; (4) D + V group: cells were cultured with 1 μM DAC and 1 mM VPA for 120 h; (5) D + T group: cells were cultured with 1 μM DAC for 120 h, followed by 1 μM TSA for 24 h; (6) Control group: cells were cultured with 0.09% DMSO, which is the highest concentration of DMSO used in this study in consideration of the potential toxicity of DMSO to living cells. Human recombinant interleukin (IL) IL-2, IL-4, and human recombinant granulocyte/macrophage colony-stimulating factor (GM-CSF) were purchased from R&D Systems.
The cytotoxic activity of MAGE-D4 peptide-specific CTLs to glioma cells was determined according to the instructions of the manufacturers by our published method ([31]). […] Four hours later, suspended cells were collected for CD107a flow cytometry, meanwhile, the supernatant was collected and analyzed with granzyme A and perforin ELISA kit (Cloud-Clone Corporation, Wuhan, China) at 450 nm, and the LDH kit (Promega, USA) at 490 nm. The percentage of specific lysis was calculated using the following formula: [(experimental release − spontaneous release)/(maximum release − spontaneous release)] × 100. […] Then, the cytotoxicity assay was measured and calculated as mentioned above.

HLA-A2 [4] = experiment: Peptide binding assay on T2 cells; set-up: species or system human; settings: 50 µg/ml peptide, 37°C 18 h, FITC anti-HLA-A2 (BB7.2), flow cytometry, FI = (MFI peptide − MFI background)/MFI background
Procedure: Peptide binding affinity to HLA-A2 was assessed using T2 cells, a cell line that expresses HLA-A2 molecules but is deficient in antigen presentation. […] After incubation, the cells were washed in Phosphate buffered saline (PBS) and further incubated with FITC-conjugated anti-HLA-A2 antibody (BB7.2; BD Biosciences) at 4°C for 45 min. The cells were then washed and re-suspended with 300 µl of PBS and subjected to flow cytometer analysis (FACS Calibur, BD Biosciences). The fluorescence index (FI) was calculated as follows: FI = mean fluorescence intensity (MFI) with the given peptide − MFI without peptide/MFI without peptide.

Nc1ncn([C@H]2C[C@H](O)[C@@H](CO)O2)c(=O)n1 [DAC, Decitabine]
methylation level of MAGE-D4 promoter region 1 (MAGE-D4 promoter [1]): decreased significantly
HLA-A2 levels (HLA-A2 [2]): elevated HLA-A2 levels with statistical significance
methylation level of MAGE-D4 promoter region 1 (MAGE-D4 promoter [3]): decreased significantly

CCCC(CCC)C(=O)O [VPA, valproic acid]
methylation level of MAGE-D4 promoter region 1 (MAGE-D4 promoter [1]): decreased significantly
methylation level of MAGE-D4 promoter region 2 (MAGE-D4 promoter [1]): decreased significantly
total methylation levels of regions 1 and 2 of MAGE-D4 core promoter (MAGE-D4 promoter [1]): decreased significantly
methylation level of MAGE-D4 promoter region 1 (MAGE-D4 promoter [3]): decreased significantly

ALQLDPETL [Peptide P5]
IL-2 secreted by DC-stimulated T cells (IL-2): higher IL-2
stimulation index (SI), T-cell proliferation, CCK8 (autologous T cells): can induce T-cell proliferation

ILSNEPWEL [Peptide P4]
DC50 (time required for 50% dissociation of the HLA-A*0201/peptide complex) (peptide/HLA-A2 complex): >2 h
cytotoxicity of peptide-specific T cells (specific lysis, LDH) (U251): cytotoxicity on the DAC + TSA-treated U251 cells with statistical significance
stimulation index (SI), T-cell proliferation, CCK8 (autologous T cells): can induce T-cell proliferation

SLGPGLRIL [Peptide P3]
FI (fluorescence index, HLA-A*0201 binding affinity) (HLA-A2 [4]): 0.887

SVQSESYSV [Peptide P1]
FI (fluorescence index, HLA-A*0201 binding affinity) (HLA-A2 [4]): 0.007

TLTSFDIHI [Peptide P2]
FI (fluorescence index, HLA-A*0201 binding affinity) (HLA-A2 [4]): 0.877

VLCLPPRNV [Peptide P7]
DC50 (time required for 50% dissociation of the HLA-A*0201/peptide complex) (peptide/HLA-A2 complex): <2 h

From paper PMC9382192, “Combined treatment with epigenetic agents enhances anti-tumor activity of MAGE-D4 peptide-specific T cells by upregulating the MAGE-D4 expression in glioma” (Frontiers in Oncology, 2022)
